From US7253197B2, “Aminothiazole derivatives” (Hoffmann-La Roche Inc., priority 2002, dated 2007)

Target: T1, recombinant mouse NPY5-receptor (mNPY5) (Mus musculus, UniProt O70342)
T1 construct: The full-length cDNA encoding the mouse NPY5 (mNPY5) receptor was amplified from mouse brain cDNA; expressed in transfected cells; membrane preparation
T1 sequence (O70342 1-466): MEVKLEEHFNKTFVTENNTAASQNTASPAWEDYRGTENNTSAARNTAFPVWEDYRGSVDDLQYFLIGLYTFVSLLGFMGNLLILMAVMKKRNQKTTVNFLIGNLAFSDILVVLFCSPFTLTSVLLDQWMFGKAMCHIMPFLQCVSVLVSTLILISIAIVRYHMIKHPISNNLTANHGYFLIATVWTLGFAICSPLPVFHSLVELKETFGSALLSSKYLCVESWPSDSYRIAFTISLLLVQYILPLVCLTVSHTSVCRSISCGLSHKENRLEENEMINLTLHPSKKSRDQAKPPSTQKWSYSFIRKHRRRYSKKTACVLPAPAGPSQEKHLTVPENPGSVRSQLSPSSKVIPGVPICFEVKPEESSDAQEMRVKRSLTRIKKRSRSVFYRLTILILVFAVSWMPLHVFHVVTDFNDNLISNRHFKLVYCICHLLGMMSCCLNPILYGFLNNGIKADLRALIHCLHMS
Assay: Radioligand competition binding
Details: HEK293 membranes expressing mNPY5; displacement of 100 pM [125I]labeled PYY; 1 h at 22° C.; read-out: NPY5-R (mouse) IC50
Source text: The full-length cDNA encoding the mouse NPY5 (mNPY5) receptor was amplified from mouse brain cDNA using specific primers, designed based on the published sequence, and Pfu DNA-Polymerase. The amplification product was subcloned into the mammalian expression vector pcDNA3 using Eco RI and XhoI restriction sites. Positive clones were sequenced and one clone, encoding the published sequence was selected for generation of stable cell clones. The sequence is published in Borowsky B., et al., “Molecular Biology and Pharmacology of Multiple NPY Y5 Receptor Species Homologs”, Regul. Pept. 75-76:45-53 (1998).
Human embryonic kidney 293 (HEK293) cells were transfected with 10 μg mNPY5 DNA using the lipofectamine reagent. Two days after transfection, geneticin selection (1 mg/ml) was initiated and several stable clones were isolated. One clone was further used for pharmacological characterization.
Human embryonic kidney 293 cells (HEK293), expressing recombinant mouse NPY5-receptor (mNPY5) were broken by three freeze/thawing cycles in hypotonic Tris buffer (5 mM, pH 7.4, 1 mM MgCl2), homogenized and centrifuged at 72,000×g for 15 min. The pellet was washed twice with 75 mM Tris buffer, pH 7.4, containing 25 mM MgCl2 and 250 mM sucrose, 0.1 mM phenylmethylsulfonylfluoride and 0.1 mM 1,10-pheneanthrolin, resuspended in the same buffer and stored in aliquots at −80° C. Protein was determined according to the method of Lowry using bovine serum albumine (BSA) as a standard. […]

Row | IC50 | SMILES
1 | 8 nM | O=C(c1cnc(Nc2cccc(C(F)(F)F)c2)s1)c1ccccc1Cl [Example 29, (2-Chloro-phenyl)-[2-(3-trifluoromethyl-phenylamino)-thiazol-5-yl]-methanone]
2 | 86 nM | CC(=O)c1cccc(Nc2ncc(C(=O)c3ccccc3C)s2)c1 [Example 61, 1-{3-[5-(2-Methyl-benzoyl)-thiazol-2-ylamino]-phenyl}-ethanone]
3 | 66 nM | N#Cc1cccc(Nc2ncc(C(=O)c3ccc(F)cc3)s2)c1 [Example 8, 3-[5-(4-Fluoro-benzoyl)-thiazol-2-ylamino]-benzonitrile]
